Measurements reported in PMC6346587, “Glucose 6-phosphate dehydrogenase 6-phosphogluconolactonase: characterization of the Plasmodium vivax enzyme and inhibitor studies” (Malaria Journal, 2019).

Assays:
[1] = tested on: P. falciparum 3D7; test: [3H]-hypoxanthine incorporation assay on asexual blood stages; type: cell-based, Plasmodium falciparum; conditions: 72 h [3H]-hypoxanthine incorporation assay
[2] = tested on: P. falciparum 3D7[hGrx1-roGFP2] cytosolic glutathione-dependent redox potential; test: Cytosolic glutathione redox sensor hGrx1-roGFP2, confocal live cell imaging (CLSM); type: cell-based, Plasmodium falciparum; conditions: for Oxidation of the hGrx1-roGFP2 sensor: comparable to 1 mM DIA
Protocol: A Leica confocal system TCS SP5 inverted microscope equipped with the objective HCX PL APO 63.0 × 1.30 GLYC 37 °C UV connected to a 37 °C temperature chamber was used. The argon laser power was set to 20%; scanning was performed at 400 Hz frequency and at a 512 × 512 pixel resolution. The smart gain and smart offset were 950 V and −0.9%, respectively. With a sequential scan, the hGrx1–roGFP2 probe was excited at 405 nm and at 488 nm and emission was detected at 500–550 nm. Laser intensity was adjusted to match the full dynamic range of the probe to the dynamic range of the detector (405 nm: 10%, 488 nm: 4%). […] The Leica LAS AF Lite software for fluorescence analysis was used. The 405/488 nm ratio was calculated. The graphs were plotted using the GraphPad Prism 5 software (San Diego, CA, USA). For live cell imaging, only parasites showing fluorescent signals at both 405 and 488 nm excitation and an intact host cell were chosen.
The effect of ML304 and the anti-malarial drugs ATS and CQ as reference drugs on P. falciparum were investigated in 4 h and 24 h incubation experiments. […] For 4 h experiments, trophozoite stage parasites (26–30 h) of 3D7^[hGrx1–roGFP2] and NF54^[hGrx1–roGFP2] (6–8% parasitaemia) were magnetically enriched (Miltenyi Biotec, Germany), counted by using a Neubauer hemocytometer (Brand GmbH, Germany), and returned to cell culture (at 2.0 × 10^4 trophozoites μL^−1) for at least 1 h to recover. 1.0 × 10^6 cells in 100 μL cell culture medium were placed into LoBind tubes (Eppendorf, Hamburg, Germany) for 4 h incubation experiments. The parasites were treated with ML304 at 1 μM, 50 μM, and 100 μM, or with the anti-malarial drugs ATS and CQ at approximately 50 × EC50 for 4 h under cell culture conditions. Subsequently, free thiol groups were blocked with 2 mM N-ethylmaleimide (NEM) for 15 min at 37 °C. For 24 h experiments, a 5 mL culture (5% haematocrit, 6–8% parasitaemia) of ring stage parasites (6–10 h post invasion) was treated with ML304 at 1 μM, 5 μM, and 10 μΜ, or the anti-malarial drugs ATS and CQ at approximately 4 × EC50. Prior to enrichment, cysteines were blocked with 2 mM NEM for 15 min at 37 °C. For 4 h and 24 h experiments, cells were washed after incubation and resuspended in Ringer’s solution (122.5 mM NaCl, 5.4 mM KCl, 1.2 mM CaCl2, 0.8 mM MgCl2, 11 mM D-glucose, 25 mM HEPES, 1 mM NaH2PO4, pH 7.4). 50 μL of cells (1.0 × 10^6 cells 50^−1 μL^−1) were seeded onto poly-L-lysine-coated μ-Slides 18 well (flat) (Ibidi, Martinsried, Germany) and measured using CLSM (confocal laser scanning microscopy) with excitation wavelengths at 405 nm and 488 nm. […] Each experiment was carried out three times. Between 10 and 20 microscopy images were taken each time, resulting in at least 30 experimental values per concentration and incubation time. The obtained ratio values were normalized to the control value, which was set to 100. All experiments were carried out within 6 weeks after the appearance of transfectants. Mean and standard error of the mean (SEM) are shown. A one-way ANOVA test with 95% confidence intervals with the Dunnett’s multiple comparison test (GraphPad Prism 5.0) was applied for statistical analysis of significance (*p < 0.05; **p < 0.01; ***p < 0.001).

[3] = tested on: P. falciparum NF54[hGrx1-roGFP2] glutathione redox ratio; test: Cytosolic glutathione redox sensor hGrx1-roGFP2, fluorescence plate reader; type: cell-based, Plasmodium falciparum
Protocol: NF54^[hGrx1–roGFP2] parasites were washed and resuspended after incubation in pre-warmed Ringer’s solution to a concentration of […]. 10 µL of cells (1 × 10^6 iRBCs) were transferred to each well of a 384-well plate (black, flat bottom, Greiner Bio-One, Frickenhausen, Germany) and were measured with the plate reader Clariostar (BMG Labtech, Ortenberg, Germany) with excitation wavelengths at 405 nm and 475 nm (emission 510 nm). The gain of the 405 nm and 475 nm excitation wavelengths was adjusted to match the full dynamic range of the hGrx1–roGFP2 redox sensor. The 405/475 nm ratio was then calculated. The graphs were plotted using the GraphPad Prism 5 software (San Diego, CA, USA). A one-way ANOVA test with 95% confidence intervals with the Dunnett’s multiple comparison test (GraphPad Prism 5.0) was applied for statistical analysis of significance (*p < 0.05; **p < 0.01; ***p < 0.001).
Recently, the cytosolic glutathione redox sensor was stably integrated into NF54-attB parasites. The direct response of NF54^[hGrx1–roGFP2] to mid- and long-term exposures were determined using the time-efficient plate reader (Clariostar). […] As depicted in Fig. 7, ML304 oxidized the cytosol, leading to an increase of the 405/488 nm ratio of the probe in a concentration-dependent manner with significant differences after a 24 h incubation.

[4] = tested on: P. falciparum Dd2; set-up: method as in PMID 24501782; conditions: CQ resistant strain; cited from earlier work
[5] = tested on: human hepatocyte cell lines; set-up: method as in PMID 24501782; conditions: cited from earlier work

Question: For `CCN1CCC[C@@H]1CNC(=O)c1ccc2c(c1)NC(=O)c1cccc(C)c1S2` [ML304], which EC50 [1] is on record?
Answer: 0.471 ± 0.0395 µM

Question: What about the “Oxidation of the hGrx1-roGFP2 sensor” value ([2]; 5 µM, 24 h incubation) of the same compound?
Answer: completely oxidize the sensor

Question: What about the “Oxidation of the hGrx1-roGFP2 sensor” value ([2]; 50 µM, 4 h incubation) of the same compound?
Answer: completely oxidize the sensor

Question: What about the “Effect on 405/488 nm ratio of hGrx1-roGFP2” value ([2]; 4 h incubation, trophozoites, 1, 50 and 100 µM (p < 0.05 at 1 µM, p < 0.001 at 50 and 100 µM)) of the same compound?
Answer: significant effects

Question: And the “Effect on 405/488 nm ratio of hGrx1-roGFP2” value ([2]; 24 h incubation, ring stage (p < 0.05 at 1 µM, p < 0.001 at 50 µM and 100 µM as printed))?
Answer: significantly increased

Question: And the “Increase of 405/475 nm fluorescence ratio” value ([3]; 8.88 µM, 24 h, ring stage, p < 0.01)?
Answer: threefold

Question: What about the “Effect on fluorescence ratio” value ([3]; 4 h incubation, trophozoite stage, 1 to 100 times EC50) of the same compound?
Answer: concentration-dependent increase in fluorescence ratio

Question: What about the “Active concentration on P. falciparum Dd2 in cell culture” value [4] of the same compound?
Answer: about 5 µM

Question: What about the “LD50 against human hepatocyte cell lines” value [5] of the same compound?
Answer: > 50 µM
